Measurements: ChEMBL document CHEMBL2202954, “The effect of PLC-γ2 inhibitors on the growth of human tumour cells” (2012)

Key:
Assay type in all cases: functional
HCT-116 = assay: Cytotoxicity against human HCT116 cells assessed as cellular growth at 10 uM by SRB assay
UO-31 = assay: Cytotoxicity against human UO31 cells assessed as cellular growth at 10 uM by SRB assay
IGROV-1 = assay: Cytotoxicity against human IGROV1 cells assessed as cellular growth at 10 uM by SRB assay
MDA-MB-435 = assay: Cytotoxicity against human MDA-MB-435 cells assessed as cellular growth at 10 uM by SRB assay
SK-OV-3 = assay: Cytotoxicity against human SKOV3 cells assessed as cellular growth at 10 uM by SRB assay
HOP-62 = assay: Cytotoxicity against human HOP62 cells assessed as cellular growth at 10 uM by SRB assay
COLO 205 = assay: Cytotoxicity against human COLO205 cells assessed as cellular growth at 10 uM by SRB assay
U-251 = assay: Cytotoxicity against human U251 cells assessed as cellular growth at 10 uM by SRB assay
CCRF-CEM = assay: Cytotoxicity against human CCRF-CEM cells assessed as cellular growth at 10 uM by SRB assay
HCC 2998 = assay: Cytotoxicity against human HCC2998 cells assessed as cellular growth at 10 uM by SRB assay
T47D = assay: Cytotoxicity against human T47D cells assessed as cellular growth at 10 uM by SRB assay
A549 = assay: Cytotoxicity against human A549 cells assessed as cellular growth at 10 uM by SRB assay
A498 = assay: Cytotoxicity against human A498 cells assessed as cellular growth at 10 uM by SRB assay
SF-268 = assay: Cytotoxicity against human SF268 cells assessed as cellular growth at 10 uM by SRB assay
SN12C = assay: Cytotoxicity against human SN12C cells assessed as cellular growth at 10 uM by SRB assay
SR = assay: Cytotoxicity against human SR cells assessed as cellular growth at 10 uM by SRB assay
MDA-MB-231 = assay: Cytotoxicity against human MDA-MB-231 cells assessed as cellular growth at 10 uM by SRB assay
OVCAR-5 = assay: Cytotoxicity against human OVCAR5 cells assessed as cellular growth at 10 uM by SRB assay

Compound | Activity (HCT-116) [%] | Activity (UO-31) [%] | Activity (IGROV-1) [%] | Activity (MDA-MB-435) [%] | Activity (SK-OV-3) [%] | Activity (HOP-62) [%] | Activity (COLO 205) [%] | Activity (U-251) [%] | Activity (CCRF-CEM) [%] | Activity (HCC 2998) [%] | Activity (T47D) [%] | Activity (A549) [%] | Activity (A498) [%] | Activity (SF-268) [%] | Activity (SN12C) [%] | Activity (SR) [%] | Activity (MDA-MB-231) [%] | Activity (OVCAR-5) [%]
Clc1ccc(-c2nc(-c3cccs3)no2)c(Cl)c1 | 94.56 | 70.88 | 66.78 | 110.83 | 93.87 | 84.92 | 106.21 | 90.09 | 85.99 | 66.03 | 51.7 | 91.44 | 110.86 | 99.25 | 100.86 |  |  | 
CC1(C)CC(=O)c2cc3c(N)c(C(=O)Nc4ccc(F)cc4)sc3nc2C1 | 114.92 | 119.15 | 119.45 | 103.15 | 109.93 | 114.29 | 133.12 | 101.59 | 107.91 | 105.43 | 111.5 | 105.88 | 87.2 | 124.1 | 122.37 | 111.31 | 112.36 | 92.85
Cc1cc(C)c(NC(=O)c2sc3nc4c(cc3c2N)C(=O)CC(C)(C)C4)c(C)c1 | 99.79 | 99.05 | 95.36 | 97.97 | 116.6 | 111.49 | 117 | 99.68 | 90.08 | 105.78 | 88.69 | 96.6 | 89.84 | 115.09 | 103.6 | 103.93 | 115.09 | 100.8
COc1cccc(C(=O)Nc2nc3ccc(Cl)cc3s2)c1 | 92.95 | 92.38 | 74.3 | 34 | 90.86 | 104.17 | 105.5 | 87.76 | 81.01 | 93.56 | 79.7 | 74.01 | 86.56 | 106.92 | 101.74 | 61.65 | 95.48 | 108.78
COc1ccc(Cl)cc1C(=O)Nc1nc2ccc(Cl)cc2s1 | 53.23 | 58.24 | 65.9 | 97.59 | 91.86 | 89.42 | 82.83 | 87.26 | 86.4 | 102.29 | 47.23 | 76.66 |  | 83.22 | 91.7 | 87.67 | 70.89 | 124.2
Cc1ccc(S(=O)(=O)Oc2ccc(-c3cnc4ccccc4n3)cc2)cc1 | 106.69 | 109.58 | 119.02 | 96.62 | 104.03 | 114.36 | 135.44 | 89.92 | 96.08 | 102.2 | 87.98 | 95.53 | 88.71 | 118.59 | 108.92 | 93.66 | 111.87 | 102.67
Clc1cccc(-c2nc(-c3cccs3)no2)c1 | 97.8 | 71.35 | 77.14 | 106.73 | 99.21 | 85.92 | 109.49 | 84.62 | 91.91 | 102.03 | 56.93 | 94.77 | 107.84 | 102.09 | 100.21 | 100.52 | 84.18 | 
COc1ccc2nc(NC(=O)c3ccc(F)cc3)sc2c1 | 95.31 | 99.75 | 98.94 | 96.73 | 104.34 | 108.23 | 115.29 | 98.75 | 91.13 | 87.56 | 76.48 | 47.59 | 85.54 | 106.57 | 112.11 | 104.31 | 116.29 | 97.79
CC1(C)CC(=O)c2cc3c(N)c(C(=O)Nc4ccc(Cl)cc4)sc3nc2C1 | 108.43 | 108.83 | 110.85 | 108.85 | 106.15 | 108.35 | 116.82 | 103.14 | 97.21 | 116.11 | 96.17 | 97.61 | 75.63 | 124.88 | 109.62 | 112.84 | 114.95 | 
Nc1c(C(=O)Nc2ccccc2)sc2nc3c(cc12)C(=O)CCC3 | 23.57 | 71.08 | 36.43 | -5.95 | 19.71 | 39.88 | -18.41 | 25.69 | 16.76 | 21.89 | 47.06 | 19.69 | 37.32 | 53.38 | 59.85 | 21.95 | 52.08 | 59.92
Cc1cccc(-c2nc(-c3cccs3)no2)c1 | 96.5 | 59.19 | 61.64 | 110.16 | 94.86 | 79.48 | 111.56 | 82.28 | 91.12 | 80.51 | 53.59 | 100.01 | 82.09 | 112.75 |  | 93.72 | 76.61 | 
Cc1cc(C)c(NC(=O)c2sc3nc4c(cc3c2N)C(=O)CCC4)c(C)c1 | 23.12 | 56.95 | 35.36 | -34.35 | 10.43 | 36.92 | -6.14 | 21.13 | 22.12 | 30.95 | 40.64 | 23.05 | -7.37 | 38.6 |  | 10.54 | 35.68 | 
O=c1/c(=C/c2ccccc2)sc2nc(-c3ccc(Cl)cc3Cl)nn12 | 100.59 | 88.97 | 102.56 | 119.04 | 98.1 | 95.63 | 123.34 | 105.46 | 105.93 | 122.44 | 94.32 | 103.15 | 108.54 | 107.58 | 106.99 |  |  | 
O=c1/c(=C/c2ccccc2Cl)sc2nc(-c3ccccc3)nn12 | 72.43 | 58.67 | 96.71 | 78.08 | 104.04 | 103.3 | 113.47 | 89.87 | 56.07 | 104.88 | 90.39 | 87.55 |  | 91.24 | 94.39 | 45.36 | 90.97 | 119.68
O=C(Nc1nc2ccc(Cl)cc2s1)c1ccc(Cl)cc1Cl | 105.32 | 101 | 103.26 | 94.59 | 105.26 | 106.54 | 114.96 | 93.57 | 99.34 | 97.08 | 95.96 | 95.4 | 93.8 | 111.47 | 113.76 | 98.17 | 114.66 | 98.11
